Data published in PubChem BioAssay AID248 (DTP/NCI, 2004).
Where “and” joins values, the source holds several entries; their conditions need not be identical. Equal values may be shown once. Toxic doses and inconclusive results are not listed. No stated cut-off is given here; in the data, active means T/C of 150% or more; inactive means T/C below 125%.

System: L1210 leukemia ip in BDF1 mice, survival T/C
Test: NCI In Vivo Anticancer Drug Screen. Data for tumor model L1210 Leukemia (intraperitoneal) in B6D2F1 (BDF1) mice
Conditions: endpoint: mean survival time, higher = longer survival
Summary of the method: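 Each compound was tested against a transplantable tumor grown in mice. The endpoint was survival, with treated animals benchmarked against vehicle controls as a simple ratio.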

[1] = dose: 100.0 mg/kg/injection, schedule: Q01DX009 (ip), vehicle: Klucel (hydroxypropylcellulose) (HPC)
[2] = dose: 100.0 mg/kg/injection, schedule: Q04DX003 (ip), vehicle: Klucel (hydroxypropylcellulose) (HPC)
[3] = dose: 200.0 mg/kg/injection, schedule: Q01DX009 (ip), vehicle: Klucel (hydroxypropylcellulose) (HPC)
[4] = dose: 200.0 mg/kg/injection, schedule: Q04DX003 (ip), vehicle: Klucel (hydroxypropylcellulose) (HPC)
[5] = dose: 400.0 mg/kg/injection, schedule: Q01DX009 (ip), vehicle: Klucel (hydroxypropylcellulose) (HPC)
[6] = dose: 400.0 mg/kg/injection, schedule: Q04DX003 (ip), vehicle: Klucel (hydroxypropylcellulose) (HPC)
[7] = dose: 100.0 mg/kg/injection, schedule: Q01DX009 (ip), vehicle: saline with Tween-80
[8] = dose: 50.0 mg/kg/injection, schedule: Q01DX001 (ip), vehicle: carboxymethylcellulose (CMC)
[9] = dose: 100.0 mg/kg/injection, schedule: Q01DX001 (ip), vehicle: carboxymethylcellulose (CMC)
[10] = dose: 200.0 mg/kg/injection, schedule: Q01DX001 (ip), vehicle: carboxymethylcellulose (CMC)
[11] = dose: 400.0 mg/kg/injection, schedule: Q01DX001 (ip), vehicle: carboxymethylcellulose (CMC)
[12] = dose: 100.0 mg/kg/injection, schedule: Q04DX002 (ip), vehicle: Klucel (hydroxypropylcellulose) (HPC)
[13] = dose: 200.0 mg/kg/injection, schedule: Q04DX002 (ip), vehicle: Klucel (hydroxypropylcellulose) (HPC)
[14] = dose: 400.0 mg/kg/injection, schedule: Q04DX002 (ip), vehicle: Klucel (hydroxypropylcellulose) (HPC)
[15] = dose: 100.0 mg/kg/injection, schedule: Q04DX003 (ip), vehicle: saline with Tween-80
[16] = dose: 200.0 mg/kg/injection, schedule: Q04DX003 (ip), vehicle: saline with Tween-80
[17] = dose: 200.0 mg/kg/injection, schedule: Q01DX009 (ip), vehicle: saline with Tween-80
[18] = dose: 400.0 mg/kg/injection, schedule: Q01DX009 (ip), vehicle: saline with Tween-80
[19] = dose: 400.0 mg/kg/injection, schedule: Q04DX003 (ip), vehicle: saline with Tween-80

Measured: T/C

CC(=O)CC(=O)Nc1cccc(C)c1C
inactive: [1] 95 % of control | [2] 97 % of control | [3] 88 % of control | [4] 106 % of control | [5] 88 % of control | [6] 105 % of control

CCCCNC(C)(C)C(SSSC(c1ccco1)C(C)(C)NCCCC)c1ccco1 (stereo not given)
inactive: dose: 50.0 mg/kg/injection, schedule: Q01DX009 (ip), vehicle: saline with Tween-80 91 % of control | [7] 96 % of control | dose: 100.0 mg/kg/injection, schedule: Q04DX003 (ip), vehicle: saline 98 % of control | dose: 200.0 mg/kg/injection, schedule: Q04DX003 (ip), vehicle: saline 100 % of control

O=C(Nc1cccc(Cl)c1)OCC#CCCl
inactive: dose: 50.0 mg/kg/injection, schedule: Q01DX001 (ip), vehicle: saline sonified 97 % of control

CCOC(=O)C(C)(CCOCc1ccccc1)NC(C)=O (stereo not given)
inactive: [8] 94 % of control | [9] 96 % of control | [10] 100 % of control | [11] 91 % of control

O=C(O)c1ccc(C(=O)Nc2cccc3ccccc23)c(C(=O)O)c1
inactive: [12] 106 % of control | [13] 103 % of control | [14] 103 % of control

CCC(C)C(CN)(CCCCN(C)C)c1cccc2ccccc12 (stereo not given)
inactive: [15] 97 % of control | [16] 100 % of control

CCOc1ccc(NC(=O)Oc2ccc(SC)c(C)c2)cc1
inactive: [1] 91 % of control | [3] 91 % of control | [5] 96 % of control

O=C(O)c1cc2ccccc2c2c1ccc1ccccc12
inactive: dose: 50.0 mg/kg/injection, schedule: Q01DX001 (ip), vehicle: Klucel (hydroxypropylcellulose) (HPC) 92 % of control | dose: 100.0 mg/kg/injection, schedule: Q01DX001 (ip), vehicle: Klucel (hydroxypropylcellulose) (HPC) 93 % of control | dose: 200.0 mg/kg/injection, schedule: Q01DX001 (ip), vehicle: Klucel (hydroxypropylcellulose) (HPC) 93 % of control

NC(CS/C(Cl)=C/Cl)C(=O)O (stereo not given)
inactive: dose: 1.5 mg/kg/injection, schedule: Q01DX009 (ip), vehicle: saline 101 % of control | dose: 3.0 mg/kg/injection, schedule: Q01DX009 (ip), vehicle: saline 106 % of control | dose: 6.0 mg/kg/injection, schedule: Q01DX009 (ip), vehicle: saline 104 % of control | dose: 12.0 mg/kg/injection, schedule: Q01DX009 (ip), vehicle: saline 98 % of control | dose: 17.0 mg/kg/injection, schedule: Q01DX009 (ip), vehicle: saline 101 % of control | dose: 27.0 mg/kg/injection, schedule: Q01DX009 (ip), vehicle: saline 95 % of control

O=C(OCC(COC(=O)c1ccccc1)(COC(=O)c1ccccc1)[N+](=O)[O-])c1ccccc1
inactive: [2] 92 % of control | [4] 92 % of control | [6] 94 % of control

NC(N)=NN=C1c2ccccc2-c2ccccc21
inactive: dose: 1.0 mg/kg/injection, schedule: Q01DX Z (ip), vehicle: methylcellulose (MC) 107 % of control | dose: 2.0 mg/kg/injection, schedule: Q01DX Z (ip), vehicle: methylcellulose (MC) 102 % of control | dose: 4.0 mg/kg/injection, schedule: Q01DX Z (ip), vehicle: methylcellulose (MC) 103 % of control | dose: 4.0 mg/kg/injection, schedule: Q01DX Z (oral), vehicle: methylcellulose (MC) 95 % of control | dose: 8.0 mg/kg/injection, schedule: Q01DX Z (ip), vehicle: methylcellulose (MC) 107 % of control | dose: 16.0 mg/kg/injection, schedule: Q01DX Z (oral), vehicle: methylcellulose (MC) 107 % of control

CCN=C(N)CSS(=O)(=O)O
inactive: dose: 25.0 mg/kg/injection, schedule: Q04DX002 (ip), vehicle: Klucel (hydroxypropylcellulose) (HPC) 100 % of control | dose: 50.0 mg/kg/injection, schedule: Q04DX002 (ip), vehicle: Klucel (hydroxypropylcellulose) (HPC) 97 % of control | [12] 95 % of control and 110 % of control

CCC(C#N)C1C=CCCC1 (stereo not given)
inactive: dose: 75.0 mg/kg/injection, schedule: Q01DX001 (ip), vehicle: other 107 % of control | dose: 150.0 mg/kg/injection, schedule: Q01DX001 (ip), vehicle: other 107 % of control

CC(C)(C)NC(=O)Nc1ccc(O)cc1
inactive: [7] 112 % of control and 91 % of control | dose: 100.0 mg/kg/injection, schedule: Q04DX002 (ip), vehicle: saline with Tween-80 94 % of control and 100 % of control | [15] 95 % of control | [17] 100 % of control and 102 % of control | dose: 200.0 mg/kg/injection, schedule: Q04DX002 (ip), vehicle: saline with Tween-80 94 % of control and 100 % of control | [16] 113 % of control | [18] 120 % of control | dose: 400.0 mg/kg/injection, schedule: Q04DX002 (ip), vehicle: saline with Tween-80 100 % of control and 101 % of control | [19] 105 % of control

O=C(O)c1c(O)c(Br)cc(Br)c1O
inactive: dose: 100.0 mg/kg/injection, schedule: Q01DX001 (ip), vehicle: other 109 % of control | dose: 200.0 mg/kg/injection, schedule: Q01DX001 (ip), vehicle: other 104 % of control | dose: 400.0 mg/kg/injection, schedule: Q01DX001 (ip), vehicle: other 90 % of control

COC(OC)c1[nH]c(=S)[nH]c(=O)c1CCc1ccccc1
inactive: [12] 97 % of control | [13] 97 % of control | [14] 86 % of control

Cn1/c(=N/N)sc2ccccc21.Cn1/c(=N/N)sc2ccccc21.Cn1/c(=N/N)sc2ccccc21.Cn1/c(=N\N)sc2ccccc21.[Cl][Rh][Cl]
inactive: dose: 3.13 mg/kg/injection, schedule: Q04DX003 (ip), vehicle: distilled water + Tween-80 100 % of control | dose: 6.25 mg/kg/injection, schedule: Q04DX003 (ip), vehicle: distilled water + Tween-80 98 % of control | dose: 12.5 mg/kg/injection, schedule: Q04DX003 (ip), vehicle: distilled water + Tween-80 101 % of control | dose: 25.0 mg/kg/injection, schedule: Q04DX003 (ip), vehicle: distilled water + Tween-80 101 % of control | dose: 50.0 mg/kg/injection, schedule: Q04DX003 (ip), vehicle: distilled water + Tween-80 93 % of control | dose: 100.0 mg/kg/injection, schedule: Q04DX003 (ip), vehicle: distilled water + Tween-80 90 % of control | dose: 200.0 mg/kg/injection, schedule: Q04DX003 (ip), vehicle: distilled water + Tween-80 95 % of control

Cc1ccc(N(Cc2ccccc2)Cc2ccccc2)cc1
inactive: dose: 75.0 mg/kg/injection, schedule: Q01DX009 (ip), vehicle: other 103 % of control | dose: 100.0 mg/kg/injection, schedule: Q04DX002 (ip), vehicle: other 105 % of control | dose: 150.0 mg/kg/injection, schedule: Q01DX009 (ip), vehicle: other 106 % of control | dose: 200.0 mg/kg/injection, schedule: Q04DX002 (ip), vehicle: other 97 % of control | dose: 300.0 mg/kg/injection, schedule: Q01DX009 (ip), vehicle: other 98 % of control | dose: 400.0 mg/kg/injection, schedule: Q04DX002 (ip), vehicle: other 97 % of control

CC1CCCCC1NC(=O)NCCOC(=O)OCCNC(=O)NC1CCCCC1C (stereo not given)
inactive: [7] 95 % of control | [15] 100 % of control | [17] 95 % of control | [16] 91 % of control | [18] 90 % of control | [19] 86 % of control

CC(C)CC(=O)Nc1ccc(S(=O)(=O)NCC(C)(C)O)cc1
inactive: [15] 98 % of control | [16] 98 % of control | [19] 95 % of control

CCCCCCc1cc(OC(=O)c2ccccc2)ccc1OC(=O)c1ccccc1
inactive: [8] 94 % of control | [9] 97 % of control | [10] 89 % of control | [11] 97 % of control

O=C(Nc1ccccc1F)Nc1ccc(Cl)cc1Cl
inactive: dose: 100.0 mg/kg/injection, schedule: Q01DX009 (ip), vehicle: saline 100 % of control | dose: 200.0 mg/kg/injection, schedule: Q01DX009 (ip), vehicle: saline 100 % of control | dose: 400.0 mg/kg/injection, schedule: Q01DX009 (ip), vehicle: saline 98 % of control
